Reference: patent US7527935B2, “G-protein coupled receptor having eicosanoid as ligand and gene thereof” (Mitsubishi Tanabe Pharma Corporation, priority 2002, dated 2009)

System: TG1019 (5-oxo-ETE receptor)
Test: Intracellular calcium level in CHO cells stably expressing TG1019
Type: cell-based, human
Details: FuraII 340/380 nm ratio
Protocol: (1) Preparation of cells stably expressing TG1019 Cells stably expressing TG1019 (the receptor protein of the present invention) and cells not expressing TG1019 were prepared by introducing to CHO cells the TG1019 protein expression vector prepared in Example 5 and the control vector, as described below.
The cells stably expressing TG1019 prepared in the above section (1) was incubated in DMEM/F12 medium supplemented with 10% fetal bovine serum at 37° C. in a CO2 incubator. To the cells which were 80 to 90% confluent, was added a cell dissociation buffer (Cell Dissociation Buffer Enzyme-free PBS-based, available from Invitrogen), and cells were dissociated by incubating at 37° C. for 5 minutes. […]
The cells after loading were centrifuged once with an assay buffer, to remove supernatant, and then, they were suspended in an assay buffer to have a concentration of 3.7 to 6.3×10^6 cells/ml. This cell suspension was portioned into a 96 well plate by 80 μl/well, and the plate was set in a fluorescence measuring device (FDSS6000, [Hamamatsu Photonics]), and the reaction was started by adding a solution containing 5-oxo-ETE or 5-HETE in a 5 fold concentration dissolved in an assay buffer, by 20 μl/well. The measurement was done by measuring fluorescence intensity at 510 nm, with excitation wavelength of 340 nm and 380 nm.

CCCCC/C=C\C/C=C\C/C=C\C=C\C(=O)CCCC(=O)O [5-oxo-ETE, 5-oxo-6E,8Z,11Z,14Z-eicosatetraenoic acid]
change in intracellular calcium level: increase in intracellular calcium level
